Laboratory results published in US20030104393A1, “Blood assessment of injury” (priority 2000, published 2003).

Test system: brain
Experiment: Genes induced in the brain following kainic acid-induced seizures (microarray)
Assay type: in vivo, rat
Parameters: key: NC = No Change
Method: Status epilepticus is produced by intraperitoneally injecting a glutamate analogue/excitotoxin, kainic acid (10 mg/kg i.p.). Animals with kainate-induced seizures are observed following drug administration to ensure that they continue to have complex seizures over a 30 minute period.
All animals are allowed to survive for 24 hours following each treatment. At that time they are deeply anesthetized with ketamine (100 mg/kg) and xylazine (20 mg/kg) given intraperitoneally. Once anesthetized, the chest is opened and a direct cardiac puncture performed with a syringe and 10 cc of blood is aspirated. Immediately following removal of the blood, the animal is decapitated while deeply anesthetized and the brain removed.
One day after hypoxia, status epilepticus, hypoglycemia, ischemic stroke, and hemorrhagic stroke are produced in adult rats, RNA or protein is isolated from the blood cells and from the brains of the animals described in Example 1. The pattern of genes or proteins expressed in the blood cells following each of these types of injury—hypoxia, status epilepticus, hypoglycemia, ischemic stroke, and hemorrhagic stroke is captured on a commercially available microarray (Affymetrix chip). The pattern of gene or protein expression is defined using an expression method, which then forms a genomic or proteomic organ injury database, which is used in assessing injury.
Note that the genes induced in the blood are different from the genes induced in the brain. Therefore, different organs express different genes. In addition, the genes induced by hypoxia in the blood are different from the genes induced by hypoxia in the brain. That is, the same stimulus induces different genes in different organs. Lastly, even though similar genes are induced in the brain by ischemia (stroke) and kainic acid-induced seizures, there are many differences in the gene expression between the two. Therefore, the pattern of gene expression in the brains of ischemic animals is distinctive from the pattern of expression of the kainate animals, and this pattern can be used to diagnose the different conditions of stroke and status epilepticus, even though many of the same genes are induced in the two conditions.
In further support, the following Tables 5 and 6 list those genes induced in the brain following stroke, kainic induced seizures, and hypoxia as compared with untouched controls and sham-operated controls.

Measured: Kainic Acid Seizure (fold change)

C=C(C)[C@H]1CN[C@H](C(=O)O)[C@H]1CC(=O)O [kainate, kainic acid]
2.2 fold change: brain, s82649_s_at Narp = neuronal activity-regulated pentraxin
3.3 fold change: brain, af00898_at p58/p45 RNA, alternatively spliced form clone H | brain, af083269_at p41-Arc RNA | brain, af083269_g_at p41-Arc RNA | brain, m18330_at Rat protein kinase C delta subspecies
3.4 fold change: brain, U77829RNA_s Rattus norvegicus gas-5 growth arrest homolog NCn-translated RNA sequence
4.7 fold change: brain, rc_aa799773 EST
6.3 fold change: brain, rc_aa799686 EST
1.5 fold change: brain, m32062_at Rat Fc-gamma receptor RNA
3.5 fold change: brain, U88572_at AMPA receptor interacting protein GRIP RNA | brain, Y10619cds_at transcriptional regulator, Relax | brain, d8557s_at RYB-a
2.6 fold change: brain, af087944RNA monocyte differentiation antigen CD14 gene
1.7 fold change: brain; j04792_at ornithine decarboxylase ODC) gene | brain, rc_ai169756 EST
NC: brain, D29769_at bone morphogenic protein-7 | brain, L20913_s_at vascular endothelial growth factor form 3 RNA | brain, M60616_at Rat collagenase (UMRCase) RNA | brain, M63282_at Rat leucine zipper protein RNA | brain, M90661_at Rattus norvegicus insulin receptor-related receptor-alpha subunit RNA | brain, RC_AA891041 EST | brain, U13396_at protein-tyrosine kinase (JAK2) RNA | brain, U16674_at interleukin-12p40 RNA | brain, ab005900_at endothelial receptor for oxidized low density | brain, af036537_at homocysteine respondent protein | brain, af036537 homocysteine respondent protein HCYP2 RNA | brain, af053362_at Rattus norvegicus death effector domain-containing protein DEFT RNA | brain, af086624_s_a serine threonine kinase (pim-3) RNA | brain, d00913_g_at intercellular adhesion molecule-1 | brain, d89069_f_at inducible carbonyl reductase | brain, d90404_g_at cathepsin C | brain, j00780_at rat preprorelaxin RNA | brain, rc_aa799323— EST | brain, rc_aa799448 EST | brain, rc_aa800701 EST | brain, rc_aa800962 EST | brain, rc_aa866443 EST | brain, rc_aa875032 EST | brain, rc_aa891576 EST | brain, rc_aa892750 EST | brain, rc_aa892851 EST | brain, rc_aa900476 EST | brain, rc_aa945737 EST | brain, rc_ai6i39302 EST | brain, rc_ai233219 EST | brain, rc_ai638945 EST | brain, rc_ai639042 | brain, rc_ai639233 EST | brain, rc_ai639372_ EST | brain, rc_ai639402 EST | brain, rc_ai639457 EST | brain, s77494_s_at lysyl oxidase {3Nuntranslated region} [rats, aorta smooth muscle cell | brain, u33500_g_at retinol dehydrogenase type II RNA | brain, u78102_at krox20 RNA | brain, x54686cds_at pJunB gene | brain, x62951RNA_s R. norvegicus RNA (pBUS19) with repetitive | brain, x63434_at R. norvegicus RNA for urokinase-type plasminogen activator | brain, x63594cds_g_ RL/IF-1 RNA | brain, x95986RNA#1 CBR gene | brain, x98377_at RNA for emerin | brain, x99121RNA#1 RT6 gene, exon 2, testis | brain, z22812_at interleukin-1 receptor type 2
1.9 fold change: brain, rc_ai070295 EST | brain, rc_ai71962 EST
2.1 fold change: brain, m13979_at Rat brain and all other organ glucose-transporter protein RNA | brain, u04835_at CREMdeltaC—G gene
6.2 fold change: brain, af28784cds# glial fibrillary acidic proteins alpha and delta (GFAP) gene
7.5 fold change: brain, rc_ai639161 EST
2 fold change: brain, M55534RNA_s Rat alpha-crystallin b chain RNA
4.5 fold change: brain, m60753_s_at catechol-O-methyltransferase RNA
3.6 fold change: brain, x71127_s_at complement protein C1q beta chain
2.5 fold change: brain, U099870_at Vmajor vault protein RNA
4.9 fold change: brain, rc_aa926129_ EST
3.9 fold change: brain, u05014_at Rattus norvegicus Sprague/Dawley PHAS-a
8.7 fold change: brain, rc_aa875126 EST
2.7 fold change: brain, U49930_g_at ICE-like cysteine protease (Lice) RNA | brain, af092090_at cp151 RNA | brain, x71127_at complement protein C1q beta
5.4 fold change: brain, j04563_at Rat cAMP phosphodiesterase RNA | brain, x74565cds_g_ TBFII RNA for polypyrimidine tract binding
5.2 fold change: brain, m80633_at Rat adenylyl cyclase type (IV) RNA
3.8 fold change: brain, aj222813_s_a precursor interleukin 18 (IL-18) | brain, d17370_g_at cystathionine gamma-lyase | brain, rc_ai171966 EST
9.2 fold change: brain, u23407_at Rattus norvegicus cellular retinoic acid-binding protein II (CRABP II) RNA
4.4 fold change: brain, a30543cds_s_ p-Meta-a RNA for CD44 surface protein from patent WO9117248
2.3 fold change: brain, rc_A1014163 EST | brain, rc_aa892775 EST | brain, rc_ai176456 EST
2.8 fold change: brain, d90404_at cathepsin C | brain, m63122_at Rat tumor necrosis factor receptor (TNF receptor) | brain, rc_aa946044 EST
3 fold change: brain, J03624_at Rat galanin (a neuropeptide) RNA | brain, L32591RNA_g GADD45 RNA | brain, af074608RNA MHC class I antigen (RT1.EC2) gene | brain, m34253_g_at Rat-interferon regulatory factor1 (IRF-a) RNA
2.4 fold change: brain, x60351cds_s alpha B-crystallin
4 fold change: brain, L46593cds_at small proline-rich protein (spr) gene | brain, af030089UTR# Rattus norvegicus activity and neurotransmitter-induced early gene | brain, m19257_at Rat cysosolic retinol-binding protein (CRBP) RNA
